From patent publication US10421756B2, “Heterobicyclic N-aminophenyl-amides as inhibitors of histone deacetylase” (Rodin Therapeutics, Inc., priority 2015, dated 2019)

Legend:
Type in all cases: binding
HDAC2 [1] = target: T1, HDAC2 (Homo sapiens (Human), UniProt Q92769); test: Reporter displacement assay (HDAC2); details: reporter probe displacement, Cheng Prusoff
Experimental: (§1) HDAC2 containing a C-terminal HIS-Tag (Proteros) and fluorescently-labeled anti-HIS-antibody are diluted in one vial in assay buffer 50 mM Tris, pH 8.0, 1 mM DTT, 150 mM NaCl, and 0.01% Tween20. Components are pre-incubated for 30 min, then a small volume of reporter probe (Proteros) is added from a highly concentrated stock and incubation is continued for another 30 min. Final concentrations after adding the reporter probe amount to 20 nM HDAC2, 4 nM antibody, and 180 nM probe.
Ten μl/well of pre-formed complex are transferred into 384 well assay plates (Corning). Compounds to be profiled are serially diluted from […] in DMSO and 60 nl are added to assay plates by pintool transfer (CybiWell, Cybio). Fluorescence intensity signal is read after 4 h in a Pherastar FS (BMG Labtech) at 337/665 nm.
(§2) For Kd determination, percent probe displacement values are calculated for each compound concentration and plotted against the compound concentration. IC50-like values (corresponding to 50% probe displacement) are calculated using standard fitting algorithms. Since the reporter probe is used at a concentration reflecting its own Kd value, compound Kd values can be calculated according to the Cheng Prusoff equation.
In the table, “A” indicates a Kd value of less than 0.1 μM; “B” a Kd value of between 0.1 μM and 0.5 μM; “C” a Kd value of greater than 0.5 μM and less than or equal to 5.0 μM; and “D” a Kd value of greater than 5.0 μM.

HDAC2 [2] = target: T1, HDAC2; test: Reporter displacement assay (HDAC2)
HDAC1 = HDAC1 (Homo sapiens (Human), UniProt Q13547); test: Reporter displacement assay (HDAC1); details: for Kd: reporter probe displacement, Cheng Prusoff
Chain of HDAC1 (Q13547 whole entry): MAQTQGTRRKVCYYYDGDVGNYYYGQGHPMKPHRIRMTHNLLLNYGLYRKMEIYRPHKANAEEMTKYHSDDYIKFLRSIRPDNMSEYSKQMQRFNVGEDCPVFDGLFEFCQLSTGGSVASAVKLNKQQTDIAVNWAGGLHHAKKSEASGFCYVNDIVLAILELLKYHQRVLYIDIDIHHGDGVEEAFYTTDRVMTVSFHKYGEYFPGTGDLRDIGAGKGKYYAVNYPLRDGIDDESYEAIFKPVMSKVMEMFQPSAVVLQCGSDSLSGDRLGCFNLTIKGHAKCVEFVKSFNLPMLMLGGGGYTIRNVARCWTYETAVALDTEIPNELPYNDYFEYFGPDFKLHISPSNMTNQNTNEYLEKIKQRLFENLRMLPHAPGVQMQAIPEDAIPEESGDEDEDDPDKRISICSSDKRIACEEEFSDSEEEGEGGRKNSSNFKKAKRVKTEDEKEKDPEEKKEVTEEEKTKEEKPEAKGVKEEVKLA
Experimental: [The procedure below names another target; the source lists this target under the same test.] as §1, with “min.” for “min. Final concentrations after adding the reporter probe amount to 20 nM HDAC2, 4 nM antibody, and 180 nM probe.”
Ten μl/well of pre-formed complex are transferred into 384 well assay plates (Corning). Compounds to be profiled are serially diluted from […] in DMSO and 60 nl are added to assay plates by pintool transfer (CybiWell, Cybio).
as §2, with “IC50-like values (corresponding to 50% probe displacement) are calculated using standard fitting algorithms.” left out

T1 sequence (Q92769 whole entry): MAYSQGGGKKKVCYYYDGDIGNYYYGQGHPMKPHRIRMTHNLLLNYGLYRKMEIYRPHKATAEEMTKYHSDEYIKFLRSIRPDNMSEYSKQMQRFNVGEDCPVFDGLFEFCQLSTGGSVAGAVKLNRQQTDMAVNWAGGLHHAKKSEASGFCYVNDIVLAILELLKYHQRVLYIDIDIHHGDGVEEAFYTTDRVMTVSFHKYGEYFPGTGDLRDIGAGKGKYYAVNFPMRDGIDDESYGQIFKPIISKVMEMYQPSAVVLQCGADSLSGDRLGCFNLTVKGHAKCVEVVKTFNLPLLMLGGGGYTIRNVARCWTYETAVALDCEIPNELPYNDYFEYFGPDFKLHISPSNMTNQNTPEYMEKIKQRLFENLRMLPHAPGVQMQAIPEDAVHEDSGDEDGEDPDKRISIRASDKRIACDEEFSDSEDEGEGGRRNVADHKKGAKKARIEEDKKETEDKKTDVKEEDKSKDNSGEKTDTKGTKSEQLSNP

SMILES | Kd (HDAC2 [1]) [nM] | residence time (HDAC2 [2]) [min] | residence time (HDAC1) [min] | Kd (HDAC1) [nM]
Nc1ccc(-c2ccc(F)cc2)cc1NC(=O)N1CC2CCC(C1)N2C=O [Compound 117] | 500 to 5000 | 36 | 29 | > 5000
CC(C)(C)OC(=O)N1CCC2(CC1)CN(C(=O)Nc1cc(-c3ccc(F)cc3)ccc1N)C2 [Compound 166] | 500 to 5000 | 521 | 84 | 500 to 5000
Nc1ccc(-c2ccc(F)cc2)cc1NC(=O)N1CC2(CCOCC2)C1 [Compound 148] | 500 to 5000 | 809 | 233 | 500 to 5000
Nc1ccc(-c2ccncc2)cc1NC(=O)N1CCC2(CCN(CCF)C2)CC1 [Compound 144] | 500 to 5000 | 1490 | 296 | 500 to 5000
Nc1ccc(-c2ccc(F)cc2)cc1NC(=O)N1CC2(CCNCC2)C1 [Compound 169] | 500 to 5000 | 716 | 120 | 500 to 5000
Cn1cc(-c2ccc(N)c(NC(=O)N3Cc4ccncc4C3)c2)cn1 [Compound 145] | 100 to 500 | 1250 | 876 | 100 to 500
CN1CC2CN(C(=O)Nc3cc(-c4ccncc4)ccc3N)CC2C1=O (stereo not drawn) [Compound 115] | 500 to 5000 | – | 98 | 500 to 5000
NCC(=O)N1CC2CN(C(=O)Nc3cc(-c4ccc(F)cc4)ccc3N)CC2C1 (stereo not drawn) [Compound 121] | 500 to 5000 | 869 | 587 | 100 to 500
CC(C)CC(=O)N1CC2CN(C(=O)Nc3cc(-c4ccc(F)cc4)ccc3N)CC2C1 (stereo not drawn) [Compound 160] | 100 to 500 | 1730 | 848 | 100 to 500
Nc1ccc(-c2ccc(F)cc2)cc1NC(=O)N1CC2CCNCC2C1 (stereo not drawn) [Compound 170] | 500 to 5000 | 2160 | 342 | 500 to 5000
CCOC(=O)N1CC2CN(C(=O)Nc3cc(-c4ccc(F)cc4)ccc3N)CC2C1 (stereo not drawn) [Compound 155] | 500 to 5000 | 1720 | 1630 | 100 to 500
Nc1ccc(-c2ccc(F)cc2)cc1NC(=O)N1CC2CNCC2C1 (stereo not drawn) [Compound 114] | 500 to 5000 | 1470 | 127 | > 5000
Nc1ccc(-c2cccnc2)cc1NC(=O)N1Cc2ccncc2C1 [Compound 134] | 100 to 500 | 790 | 192 | 100 to 500
Nc1ccc(-c2ccc(F)cc2)cc1NC(=O)N1CCC2(CC1)CCN(C1COC1)C2 [Compound 164] | 100 to 500 | 2210 | 1430 | 100 to 500
Nc1ccc(-c2ccccn2)cc1NC(=O)N1Cc2ccncc2C1 [Compound 146] | 500 to 5000 | 1280 | 540 | 100 to 500
Nc1ccc(-c2ccc(F)c(F)c2)cc1NC(=O)N1Cc2nccnc2C1 [Compound 137] | 100 to 500 | 1380 | 552 | 100 to 500
Nc1ccc(-c2ccncc2)cc1NC(=O)N1CC2CCC(C1)O2 [Compound 105] | > 5000 | – | – | > 5000
Nc1ccc(-c2ccc(C(F)(F)F)cc2F)cc1NC(=O)N1Cc2ccncc2C1 [Compound 132] | 500 to 5000 | 111 | 47 | 500 to 5000
Nc1ccc(-c2ccc(F)cc2)cc1NC(=O)N1CC2(CCCCO2)C1 [Compound 153] | 500 to 5000 | 1290 | 457 | 100 to 500
CC(=O)N1C2CCC1CN(C(=O)Nc1cc(-c3ccncc3)ccc1N)C2 [Compound 109] | > 5000 | – | – | > 5000
CC(C)(C)OC(=O)N1C2CCC1CN(C(=O)Nc1cc(-c3ccncc3)ccc1N)C2 [Compound 106] | > 5000 | – | – | > 5000
CC(=O)N1C2CCC1CN(C(=O)Nc1cc(-c3ccncc3)ccc1N)C2 [Compound 107] | > 5000 | – | – | > 5000
CC(C)(C)OC(=O)N1CC2CC1CN2C(=O)Nc1cc(-c2ccncc2)ccc1N (stereo not drawn) [Compound 104] | > 5000 | – | – | > 5000
Cc1cc(F)ccc1-c1ccc(N)c(NC(=O)N2Cc3ccncc3C2)c1 [Compound 141] | > 5000 | – | 1350 | > 5000
Nc1ccc(-c2ccc(F)cc2)cc1NC(=O)N1CC2CCC(C1)N2 [Compound 113] | > 5000 | – | – | > 5000
CC(=O)N1CC2CC1CN2C(=O)Nc1cc(-c2ccncc2)ccc1N (stereo not drawn) [Compound 108] | > 5000 | – | – | > 5000
Nc1ccc(-c2ccncc2)cc1NC(=O)N1Cc2cncnc2C1 [Compound 100] | – | – | 470 | 100 to 500
CC(C)(C)OC(=O)N1C2CCC1CN(C(=O)Nc1cc(-c3ccncc3)ccc1N)C2 [Compound 110] | > 5000 | – | – | > 5000

More lines, now with the values ahead:

Kd (HDAC2 [1]) [nM] | residence time (HDAC2 [2]) [min] | residence time (HDAC1) [min] | Kd (HDAC1) [nM] | SMILES
100 to 500 | 1950 | 1480 | < 100 | Nc1ccc(-c2ccc(F)cc2)cc1NC(=O)c1cn2c(n1)CNCC2 [Compound 122]
100 to 500 | 1200 | 695 | 100 to 500 | Nc1ccc(-c2ccc(F)c(F)c2)cc1NC(=O)c1cn2c(n1)CNCC2 [Compound 131]
100 to 500 | 1250 | 1210 | < 100 | Nc1ccc(-c2ccc(F)cc2)cc1NC(=O)N1CCC2(CCOC2)CC1 [Compound 173]
< 100 | 1340 | 946 | < 100 | Nc1ccc(-c2ccc(OC(F)F)cc2)cc1NC(=O)N1Cc2ccncc2C1 [Compound 162]
100 to 500 | 1460 | 1300 | < 100 | Nc1ccc(-c2ccc(F)cc2F)cc1NC(=O)N1Cc2ccncc2C1 [Compound 133]
100 to 500 | 2640 | 1060 | < 100 | Nc1ccc(-c2ccc(F)cc2)cc1NC(=O)N1CC2CN(C(=O)OC3CCC3)CC2C1 (stereo not drawn) [Compound 159]
500 to 5000 | – | – | 100 to 500 | Nc1ccc(-c2ccc(F)c(Cl)c2)cc1NC(=O)N1Cc2ccncc2C1 [Compound 163]
100 to 500 | 987 | 299 | 100 to 500 | Nc1ccc(-c2ccc(F)cc2)cc1NC(=O)N1CCC2(CCOCC2)C1 [Compound 172]
100 to 500 | 1490 | 1200 | < 100 | Nc1ccc(-c2ccc(F)cc2)cc1NC(=O)N1CCC2(CCN(CCF)C2)CC1 [Compound 143]
< 100 | 6280 | 1130 | < 100 | Nc1ccc(-c2ccoc2)cc1NC(=O)N1Cc2ccncc2C1 [Compound 151]
100 to 500 | 2140 | 1220 | < 100 | Nc1ccc(-c2ccc(F)cc2)cc1NC(=O)N1CC2CN(C(=O)OC3CC3)CC2C1 (stereo not drawn) [Compound 158]
100 to 500 | 636 | 1180 | < 100 | Nc1ccc(-c2ccc(F)cc2)cc1NC(=O)N1CCC2(CCNC2)CC1 [Compound 118]
100 to 500 | 2620 | 937 | < 100 | Nc1ccc(-c2ccc(F)cc2)cc1NC(=O)N1CC2CN(C3COC3)CC2C1 (stereo not drawn) [Compound 126]
< 100 | 2260 | 1450 | < 100 | COc1ccc(-c2ccc(N)c(NC(=O)N3Cc4ccncc4C3)c2)cc1 [Compound 139]
< 100 | 2710 | 1170 | < 100 | Nc1ccc(-c2ccc(F)cc2)cc1NC(=O)c1nc2c(s1)CCNC2 [Compound 175]
100 to 500 | 1620 | 1340 | < 100 | Nc1ccc(-c2ccc(F)cc2)cc1NC(=O)c1nc2c(s1)CNCC2 [Compound 147]
100 to 500 | 1360 | 838 | < 100 | CC(C)COC(=O)N1CC2CN(C(=O)Nc3cc(-c4ccc(F)cc4)ccc3N)CC2C1 (stereo not drawn) [Compound 157]
100 to 500 | 2640 | 1170 | < 100 | CC(C)(C)OC(=O)N1CCC2(CCN(C(=O)Nc3cc(-c4ccc(F)cc4)ccc3N)CC2)C1 [Compound 161]
